Literature values as cited in patent publication US20240117023A1, “METHOD” (Agency for Science, Technology and Research, priority 2021, published 2024).

System: RA and OA animal models
Conditions: in vivo; cited from earlier work

SMILES: CN1C(=O)N(C[C@H](C(=O)NO)[C@@H](CC2CCCC2)C(=O)N2CCCCC2)C(=O)C1(C)C [Trocade]
- effect in animal models: protective effects against RA and OA
